From US6355799B1, “Substituted benzene compounds, process for their preparation, and herbicidal and defoliant compositions containing them” (ISK Americas Incorporated, priority 1997, dated 2002)

How the values were obtained:
Format in all cases: in vivo
[1] = system: redroot pigweed (Amaranthus retroflexus, AMARE); assay: Pre-emerge test, greenhouse herbicide activity screening; settings: pre-emerge, rated 14 days after application, 0 = no damage, 100 = complete death
Outline: (§1)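 Plants grown in 10 cm pots of sandy loam mix received acetone-dissolved compounds through a moving flat-fan nozzle. Doses ranged from 15 to 1000 g ai/ha. Pre-emerge pots were seeded one day earlier, post-emerge pots 8–21 days earlier. Fourteen days on, each pot was graded 0–100 for damage.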

[2] = system: upland rice (Oryza sp., var. Tebonnet, RICE); assay: Pre-emerge test, crop safety; settings: pre-emerge, rated 14 days after application, 0 = no damage, 100 = complete death
Outline: (§2)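 Applied at 15–1000 g ai/ha from acetone in 187 l/ha spray volume. Post-emergence applications included 0.25% v/v non-ionic surfactant and reached plants sown 8–21 days before. Pre-emergence applications were incorporated by surface watering. Efficacy or crop damage was rated on a 0–100 scale after 14 days.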

[3] = system: field corn (Zea mays L., var. Dekalb 535, CORN); assay: Pre-emerge test, crop safety; settings: pre-emerge, rated 14 days after application, 0 = no damage, 100 = complete death
Outline: as §2

[4] = system: sicklepod (Cassia obtusifolia, CASOB); assay: Pre-emerge test, greenhouse herbicide activity screening; settings: pre-emerge, rated 14 days after application, 0 = no damage, 100 = complete death
Outline: as §2

[5] = system: green foxtail (Setaria viridis, SETVI); assay: as above; settings: pre-emerge, rated 14 days after application, 0 = no damage, 100 = complete death
Outline: as §2

[6] = system: velvetleaf (Abutilon theophrasti, ABUTH); assay: as above; settings: pre-emerge, rated 14 days after application, 0 = no damage, 100 = complete death
Outline: as §2

[7] = system: barnyardgrass (Echinochloa crus-galli, ECHCG); assay: as above; settings: pre-emerge, rated 14 days after application, 0 = no damage, 100 = complete death
Outline: as §2

[8] = system: ivyleaf morningglory (Ipomoea hederacea, IPOHE); assay: as above; settings: pre-emerge, rated 14 days after application, 0 = no damage, 100 = complete death
Outline: as §2

[9] = system: johnsongrass (Sorghum halepense, SORHA); assay: as above; settings: pre-emerge, rated 14 days after application, 0 = no damage, 100 = complete death
Outline: as §2

[10] = system: large crabgrass (Digitaria sanguinalis, DIGSA); assay: as above; settings: pre-emerge, rated 14 days after application, 0 = no damage, 100 = complete death
Outline: as §2

[11] = system: lambsquarters (Chenopodium album, CHEAL); assay: as above; settings: pre-emerge, rated 14 days after application, 0 = no damage, 100 = complete death
Outline: as §2

[12] = system: redroot pigweed (Amaranthus retroflexus, AMARE); assay: Post-emerge test, greenhouse herbicide activity screening; settings: phytotoxicity rating 0-100 (0 no damage, 100 complete death), 14 days after application
Outline: as §1

[13] = system: sicklepod (Cassia obtusifolia, CASOB); assay: as above; settings: phytotoxicity rating 0-100 (0 no damage, 100 complete death), 14 days after application
Outline: as §1

[14] = system: green foxtail (Setaria viridis, SETVI); assay: as above; settings: phytotoxicity rating 0-100 (0 no damage, 100 complete death), 14 days after application
Outline: as §1

[15] = system: velvetleaf (Abutilon theophrasti, ABUTH); assay: as above; settings: phytotoxicity rating 0-100 (0 no damage, 100 complete death), 14 days after application
Outline: as §1

[16] = system: barnyardgrass (Echinochloa crus-galli, ECHCG); assay: as above; settings: phytotoxicity rating 0-100 (0 no damage, 100 complete death), 14 days after application
Outline: as §1

[17] = system: ivyleaf morningglory (Ipomoea hederacea, IPOHE); assay: as above; settings: phytotoxicity rating 0-100 (0 no damage, 100 complete death), 14 days after application
Outline: as §1

[18] = system: johnsongrass (Sorghum halepense, SORHA); assay: as above; settings: phytotoxicity rating 0-100 (0 no damage, 100 complete death), 14 days after application
Outline: as §1

[19] = system: large crabgrass (Digitaria sanguinalis, DIGSA); assay: as above; settings: phytotoxicity rating 0-100 (0 no damage, 100 complete death), 14 days after application
Outline: as §1

[20] = system: lambsquarters (Chenopodium album, CHEAL); assay: as above; settings: phytotoxicity rating 0-100 (0 no damage, 100 complete death), 14 days after application
Outline: as §1

[21] = system: upland rice (Oryza sp., var. Tebonnet, RICE); assay: Post-emerge test, crop safety; settings: phytotoxicity rating 0-100 (0 no damage, 100 complete death), 14 days after application
Outline: as §2

[22] = system: field corn (Zea mays L., var. Dekalb 535, CORN); assay: Post-emerge test, crop safety; settings: phytotoxicity rating 0-100 (0 no damage, 100 complete death), 14 days after application
Outline: as §2

SMILES: CCc1ccc(C(=O)Nc2c(OCC#N)c(Cl)cc(F)c2-n2c(=O)cc(C(F)(F)F)n(C)c2=O)cc1 [2-28]
- Pre-emerge Herbicidal Activity AMARE (phytotoxicity rating, scale 0-100) ([1]; 63 g ai/ha): 100
- Pre-emerge Herbicidal Activity AMARE (phytotoxicity rating, scale 0-100) ([1]; 250 g ai/ha): 100
- Pre-emerge crop damage RICE (phytotoxicity rating, scale 0-100) ([2]; 63 g ai/ha): 60
- Pre-emerge crop damage RICE (phytotoxicity rating, scale 0-100) ([2]; 250 g ai/ha): 70
- Pre-emerge crop damage CORN (phytotoxicity rating, scale 0-100) ([3]; 63 g ai/ha): 0
- Pre-emerge crop damage CORN (phytotoxicity rating, scale 0-100) ([3]; 250 g ai/ha): 10
- Pre-emerge Herbicidal Activity CASOB (phytotoxicity rating, scale 0-100) ([4]; 63 g ai/ha): 5
- Pre-emerge Herbicidal Activity CASOB (phytotoxicity rating, scale 0-100) ([4]; 250 g ai/ha): 100
- Pre-emerge Herbicidal Activity SETVI (phytotoxicity rating, scale 0-100) ([5]; 63 g ai/ha): 50
- Pre-emerge Herbicidal Activity SETVI (phytotoxicity rating, scale 0-100) ([5]; 250 g ai/ha): 100
- Pre-emerge Herbicidal Activity ABUTH (phytotoxicity rating, scale 0-100) ([6]; 63 g ai/ha): 100
- Pre-emerge Herbicidal Activity ABUTH (phytotoxicity rating, scale 0-100) ([6]; 250 g ai/ha): 100
- Pre-emerge Herbicidal Activity ECHCG (phytotoxicity rating, scale 0-100) ([7]; 63 g ai/ha): 0
- Pre-emerge Herbicidal Activity ECHCG (phytotoxicity rating, scale 0-100) ([7]; 250 g ai/ha): 20
- Pre-emerge Herbicidal Activity IPOHE (phytotoxicity rating, scale 0-100) ([8]; 63 g ai/ha): 80
- Pre-emerge Herbicidal Activity IPOHE (phytotoxicity rating, scale 0-100) ([8]; 250 g ai/ha): 100
- Pre-emerge Herbicidal Activity SORHA (phytotoxicity rating, scale 0-100) ([9]; 63 g ai/ha): 10
- Pre-emerge Herbicidal Activity SORHA (phytotoxicity rating, scale 0-100) ([9]; 250 g ai/ha): 50
- Pre-emerge Herbicidal Activity DIGSA (phytotoxicity rating, scale 0-100) ([10]; 63 g ai/ha): 50
- Pre-emerge Herbicidal Activity DIGSA (phytotoxicity rating, scale 0-100) ([10]; 250 g ai/ha): 90
- Pre-emerge Herbicidal Activity CHEAL (phytotoxicity rating, scale 0-100) ([11]; 63 g ai/ha): 100
- Pre-emerge Herbicidal Activity CHEAL (phytotoxicity rating, scale 0-100) ([11]; 250 g ai/ha): 100
- Post-emerge Herbicidal Activity AMARE ([12]; 63 g ai/ha): 100
- Post-emerge Herbicidal Activity AMARE ([12]; 250 g ai/ha): 100
- Post-emerge Herbicidal Activity CASOB ([13]; 63 g ai/ha): 30
- Post-emerge Herbicidal Activity CASOB ([13]; 250 g ai/ha): 20
- Post-emerge Herbicidal Activity SETVI ([14]; 63 g ai/ha): 30
- Post-emerge Herbicidal Activity SETVI ([14]; 250 g ai/ha): 30
- Post-emerge Herbicidal Activity ABUTH ([15]; 63 g ai/ha): 100
- Post-emerge Herbicidal Activity ABUTH ([15]; 250 g ai/ha): 100
- Post-emerge Herbicidal Activity ECHCG ([16]; 63 g ai/ha): 0
- Post-emerge Herbicidal Activity ECHCG ([16]; 250 g ai/ha): 0
- Post-emerge Herbicidal Activity IPOHE ([17]; 63 g ai/ha): 60
- Post-emerge Herbicidal Activity IPOHE ([17]; 250 g ai/ha): 50
- Post-emerge Herbicidal Activity SORHA ([18]; 63 g ai/ha): 0
- Post-emerge Herbicidal Activity SORHA ([18]; 250 g ai/ha): 0
- Post-emerge Herbicidal Activity DIGSA ([19]; 63 g ai/ha): 0
- Post-emerge Herbicidal Activity DIGSA ([19]; 250 g ai/ha): 0
- Post-emerge Herbicidal Activity CHEAL ([20]; 63 g ai/ha): 60
- Post-emerge Herbicidal Activity CHEAL ([20]; 250 g ai/ha): 60
- Post-emerge Herbicidal Activity RICE (crop damage) ([21]; 63 g ai/ha): 90
- Post-emerge Herbicidal Activity RICE (crop damage) ([21]; 250 g ai/ha): 90
- Post-emerge Herbicidal Activity CORN (crop damage) ([22]; 63 g ai/ha): 15
- Post-emerge Herbicidal Activity CORN (crop damage) ([22]; 250 g ai/ha): 25
